This note sets out measurements from US8304238B2, “Cell culture medium and immobilized preparation of cell adhesion protein or peptide” (Nat'l Institute for Environmental Studies, priority 2003, dated 2012).

Where no end group is shown, it is not given here. [ ]: non-standard residue; d: D form. Nle = CCCC[C@H](N)C(=O)O

Holding throughout (type): cell-based
Experiment [1] has as its system alveolar type II epithelial cells (T2 cells). The experiment is described as follows: Adhesion of T2 cells to pseudomatrix adsorbed/immobilized from DMEM and competitive inhibition by free peptides. Conditions: for Competitive inhibition of cell adhesion to pseudomatrix by free cell adhesion peptide: pseudomatrix 1-10 μg/ml in DMEM; for Cell adhesion ability of immobilized pseudomatrix compared with directly coated FN: 1-10 μg/ml in DMEM, 1-day serum-free culture, excluding 1 μg/ml of MBAC-AG73. How it is done:
200 mg each of hydrophobic binding-adsorptive polymer, MBAC, MAST or MMAC were dispersed into water, and 1 N NaOH solution was added little by little to dissolve them completely. 50 mg of WSC (1-ethyl-3-(3-dimethylamino propyl)carbodiimide, hydrochloride) was added to the resulting solution, and the reaction was conducted for 2 hours. Subsequently, 20 mg of peptide was added, and the reaction was continued with stirring for 2 hours at room temperature. After the reaction was finished, the reactant was subjected to dialysis with water to remove alkaline and low molecules, and then freeze-dried to prepare a pseudomatrix of interest.
Each pseudomatrix prepared in Example 13 to which cell adhesion peptide was bound (MBAC-peptide) was diluted in DMEM medium to the concentration of 1-10 μg/ml, and the resultant solution was poured into a 96-well by 100 μl each, and left still overnight in a CO2 incubator to be adsorbed and immobilized on the wells. Non-adsorbed MBAC-peptides were removed by rinsing well with DMEM medium. Next, T2 cells suspended at the concentration of 6×10^5 cells/ml were seeded in the serum-free DMEM by 100 μl each. After 1-day serum-free culture, T2 cells were fixed with 100 μl of methanol for 5 minutes, and stained with 50 μl of 0.4% crystal violet for 30 minutes. Excessive staining was washed with water, and the number of adhering cells was counted based on the absorbance of cytoplasm (A595).
In the same manner as in Example 14, each pseudomatrix prepared in Example 13 to which cell adhesion peptide was bound (MAST-peptide) was adsorbed and immobilized on a 96-well, and T2 cells were seeded and cultured thereon.

For experiment [2] the test system is unchanged. The experiment is described as follows: Adhesion of T2 cells to pseudomatrices dissolved in 50% ethanol and air-dried/immobilized, and competitive inhibition by free peptide. Particulars: for Competitive inhibition of cell adhesion by free peptide: 50% ethanol air-dried pseudomatrix, 0.25 mg/ml free AG73 or FIB-1; for Adhesion of T2 cells to pseudomatrix compared with coated FN: 0.1-1.0 μg/well, 24 hours serum-free; for Free GRGDSP concentration at which cell adhesion was almost completely inhibited: free peptide 0.25-4.0 mg/ml tested. As for the experimental part:
50 μl of 2-20 μg/ml MAST-GRGDSP (Gly-Arg-Gly-Asp-Ser-Pro) (SEQ ID NO: 22) and MMAC-GRGDSP (SEQ ID NO: 22) dissolved in 50% ethanol were poured into wells, and air-dried/immobilized. Next, the wells to which MAST-GRGDSP (SEQ ID NO: 22) and MMAC-GRGDSP (SEQ ID NO: 22) (0.1-1.0 μg/well) were coated were rinsed with the serum-free DMEM medium. T2 cells suspended in the medium at the concentration of 6×10^4 cells/100 μl were seeded, and cultured in a CO2 incubator at 37° C. for 24 hours. Then, the cells were fixed with methanol, stained, and measured its absorbance according to the method in Example 7. A culture wherein FN was coated as a standard material was conducted simultaneously. The cell adhesion on FN was shown as a standard (100%).
In the same manner as in Example 18, MAST-GRGDSP (SEQ ID NO: 22) was dissolved in 50% ethanol, air-dried/immobilized on wells, and T2 cells were seeded/cultured thereon. Separately, just before the cells were seeded, 0.25-4.0 mg/ml of free GRGDSP (SEQ ID NO: 22) peptide was added to the cell suspension, and the culture and the subsequent measurement of absorbance were conducted in the same manner as described above. […] Further, when the applied amount of MAST-GRGDSP (SEQ ID NO: 22) was decreased, the immobilized amount of GRGDSP (SEQ ID NO: 22) decreased, and the competitive inhibition by free GRGDSP (SEQ ID NO: 22) peptide worked more effectively.
In the same manner as in Example 18, MMAC-GRGDSP (SEQ ID NO: 22) was dissolved in 50% ethanol, air-dried/immobilized on wells, and T2 cells were seeded/cultured thereon. Separately, just before the cells were seeded, 0.25-4.0 mg/ml of free GRGDSP (SEQ ID NO: 22) peptide was added to the cell suspension, and the culture and the subsequent measurement of absorbance were conducted in the same manner as described above.
In the same manner as in Example 18, MBAC/MAST-AG73 and -FIB-1 were dissolved in 50% ethanol, air-dried/immobilized on wells, and T2 cells were seeded/cultured thereon. Separately, just before the cells were seeded, 0.25 mg/ml of free AG73 or FIB-1 peptide was added to the cell suspension, and the culture and the subsequent measurement of absorbance were conducted in the same manner as described above.

Experiment [3] shares this test system. The experiment is described as follows: Inhibition by free cell adhesion peptides of T2 cell adhesion to coated cell adhesion proteins FN, Col I, LN, VN. Particulars: free peptide 0.25 mg/ml; serum-free, 1 day. As for the experimental part:
Commercially available FN, LN and VN, usually used as cell adhesion proteins at cell culture, were coated to wells at the concentrations of 5 μg/ml, 10 μg/ml and 10 μg/ml, respectively. In case of Col I (collagen type I), Col I at the concentration of 100 μg/ml, dissolved in 1 mM HCl, was poured into a well, left stand still for a while, and then the solution was removed and air-drying was conducted, and rinsed with the medium, before use. Next, 6×10^5 cells/ml of alveolar type II epithelial cells (T2 cells) suspended in the serum-free DMEM medium was seeded by 100 μl each on a 96-well to which the extracellular matrix was coated, and cultured in a CO2 incubator at 37° C. for 1 day. After the culture was finished, the cells were fixed with 100 μl of methanol for 5 minutes, and stained for 30 minutes with 50 μl of 0.4% crystal violet. Excessive staining was washed with water, then the number of cells adhered to FN, Col I, LN and VN, which had been coated to the wells, was counted based on the absorbance of cytoplasm (A595).
On the other hand, among amino acid sequences of various LN molecules, the sequences that induce cell adhesion are known to be present. […] Then, the number of cells was counted in accordance with the method described above.

The test system is the same in experiment [4]. The experiment is described as follows: Binding strength (affinity) of immobilized LN peptides to T2 cells relative to immobilized FIB-1 (mixed immobilization, free FIB-1 competition). Also on record: key to Binding strength to T2 cells, Comprehensive evaluation: AA: extremely strongly binding/adhering; A: strongly binding/adhering; B: intermediately binding/adhering (as the same degree as FIB-1 peptide); C: more weakly binding/adhering than FIB-1 peptide. As for the experimental part: Therefore, the amount of FIB-1 peptide was set at 0.25 mg/ml, and AG73 peptide was mixed therewith, while changing its concentration ratio, from 1/1.250 of FIB-1 in an amount which is 0.20 μg/ml, to ½ of FIB-1 in an amount which is 0.125 mg/ml, and the mixture was immobilized on a well wherein a hydrophobic binding-adsorptive polymer MMAC was coated. The amount of cell adhesion in the case where T2 cells were cultured under a serum-free condition for 1 day on the immobilized peptides is shown in FIG. 9, in comparison with the case where the culture was conducted on the immobilized FIB-1, which was set at 100%.
However, in a case that the ratio of FIB-1:AG73 increased to 1:0.02, because T2 cells already transited to be adherent through the immobilized AG73 peptide, free FIB-1 peptide could no longer inhibit the cell adhesion. […] Likewise, with regard to A3G72 and A4G82 peptides, because the mixing ratio at the transitional midpoint=0.1, their binding strength to T2 cells is 10 times as much as that of FIB-1.
The method used in FIGS. 8 and 9 is extremely effective as a convenient method by which a relative order can be measured concerning to the binding strength (affinity) of cell adhesion peptides and the strength of cell adhesion can be considered quantitatively.
In Table 1, the classification is shown based on the results of the affinity (bonding/adhesion strength) between FIB-1 peptide containing RGD amino acid sequence of FN molecule, a binding site to integrin, and T2 cells: laminin α-chain G-domain peptides are classified into class AA, extremely strong binding/adhesion; class A, strong adhesion; class B, adhesion as the same degree as FIB-1; and class C, binding weaker than the described above.

Experiment [5] has the same test system. Briefly: Inhibition of T2 cell adhesion by free peptide different from the immobilized peptide substrate. As for the experimental part:
Results obtained by adding the free peptides different from the immobilized peptides when T2 cells were cultured on the immobilized peptide prepared according to the method in Example 7, were shown in FIG. 8.
When adding the free peptides that were the same as the immobilized peptides in the culture medium, the both (free and immobilized) peptides compete for syndecan of T2 cells and as a result, the cell adhesion is inhibited (see Example 7). So far, four types of syndecans are genetically known. Whether these syndecans are commonly owned or accommodated by each peptide, overlapping only by some degrees, otherwise mutually exclusive, was examined herein.

Turning to “MBAC-AG73: pseudomatrix: MBAC polymer reacted with AG73 peptide (RKRLQVQLSIRT)”, in experiment [1], the “Competitive inhibition of cell adhesion to pseudomatrix by free cell adhesion peptide” value is “competitively inhibited”. For the same substance, the “Competitive inhibition of cell adhesion by free peptide” value in experiment [2] is “almost completely inhibited”. Besides, the “Adhesion of T2 cells to pseudomatrix compared with coated FN” value (from here on “Adhesion … compared with coated FN”) in experiment [2] (50% ethanol, air-dried) is listed as “similarly to the case where FN was coated”.
“MBAC-A3G72: pseudomatrix: MBAC polymer reacted with A3G72 peptide (KPRLQFSLDIQT)”: in experiment [1], the “Competitive inhibition of cell adhesion to pseudomatrix by free cell adhesion peptide” value is “competitively inhibited”.
As to “MAST-A4G82X: pseudomatrix: MAST polymer reacted with A4G82X peptide (TLFLAHGRLVF[Nle]; also: peptide reacted with MAST polymer (pseudomatrix))”, in experiment [1], the “Cell adhesion ability of immobilized pseudomatrix compared with directly coated FN” value is “the same level of cell adhesion ability as in the case where FN was directly coated” and the “Competitive inhibition of cell adhesion to pseudomatrix by free cell adhesion peptide” value was “inhibited by free A4G82 peptide”.
For the substance “MMAC-GRGDSP: pseudomatrix: MMAC polymer bound to GRGDSP peptide (also: bound to MMAC polymer)”, the “Adhesion … compared with coated FN” value in experiment [2] (50% ethanol, air-dried) was “slightly lower than that of the standard cell adhesion protein FN”.
With “MAST-GRGDSP: pseudomatrix: MAST polymer bound to GRGDSP peptide (also: bound to MAST polymer)”, the “Adhesion … compared with coated FN” value in experiment [2] (50% ethanol, air-dried) is recorded as “slightly lower than that of the standard cell adhesion protein FN”. Moreover, in experiment [2] (50% ethanol, air-dried, polystyrene wells), the “Amount of cell adhesion compared with the same peptide bound to MMAC” value is reported as “larger amount of cell adhesion than that of the same peptide bound to MMAC polymer”.
On to “MAST-AG73: pseudomatrix: MAST polymer reacted with AG73 peptide (RKRLQVQLSIRT)”, for which, in experiment [1], the “Cell adhesion ability of immobilized pseudomatrix compared with directly coated FN” value is “the same level of cell adhesion ability as in the case where FN was directly coated” and the “Competitive inhibition of cell adhesion to pseudomatrix by free cell adhesion peptide” value is given as “competitively inhibited by the free cell adhesion peptide, the degree is lower than the case of MBAC-peptide”. Besides, the “Competitive inhibition of cell adhesion by free peptide” value in experiment [2] is “almost completely inhibited”. The “Adhesion … compared with coated FN” value in experiment [2] (50% ethanol, air-dried) is on record as “similarly to the case where FN was coated”.
“MAST-A3G72: pseudomatrix: MAST polymer reacted with A3G72 peptide (KPRLQFSLDIQT)”: in experiment [1], the “Cell adhesion ability of immobilized pseudomatrix compared with directly coated FN” value is on record as “the same level of cell adhesion ability as in the case where FN was directly coated” and the “Competitive inhibition of cell adhesion to pseudomatrix by free cell adhesion peptide” value was “competitively inhibited by the free cell adhesion peptide, the degree is lower than the case of MBAC-peptide”.
In the case of LVLFLNHGHFVA, the “Inhibition of adhesion of T2 cells to FN, Col I, LN and VN by free peptide” value in experiment [3] is listed as “inhibited adhesion of T2 cells”. In addition, the “Binding strength to T2 cells, Comprehensive evaluation” value in experiment [4] (classification relative to FIB-1 peptide) is “B”. Also, in experiment [4] (peptide:FIB-1 co-immobilized, FIB-1 0.25 mg/ml, loss of inhibition by free FIB-1), the “Mixing ratio at the transitional midpoint” value is “about 1”. In addition, in experiment [5] (AG73 (etc.) immobilized), the “Inhibition by free peptide of T2 cell adhesion to immobilized AG73” value was “inhibited the cell adhesion”. Further, the “Inhibition by free peptide of T2 cell adhesion to immobilized FIB-1” value in experiment [5] (FIB-1 immobilized) was “could inhibit”.
With “Gly-Arg-Gly-Asp-Ser-Pro (GRGDSP) [reference compound]”, the “Free GRGDSP concentration at which cell adhesion was almost completely inhibited” value in experiment [2] (adhesion to MAST-GRGDSP) was 4.0 mg/mL; in experiment [2] (adhesion to MMAC-GRGDSP), 1.0 to 4.0 mg/mL.
